Consider 1 compound from US6063803A, “Octahydropyrrolo-[3,4-c]carbazoles useful as analgesic agents” (Ortho-McNeil Pharmaceutical, Inc., priority 1999, dated 2000).

The assay is described as follows: mouse acetylcholine bromide-induced abdominal constriction assay. Format: in vivo, mice (Male, Cr1:CD-1). As to the method:
The analgesic activity of compounds of Formula I were determined in the following in vivo assay. The procedure was run essentially as described by H. Collier et al. in B. J. Pharmacol. Chemother., 32: 295-310, 1968, with minor modifications. Mice (Male, Cr1:CD-1, Charles River Laboratories) were used in the following example. The test drugs or appropriate vehicle were administered orally (10 mL/kg, p.o.) or subcutaneously (10 mL/kg, s.c.) and 30 minutes later the animal received an intraperitoneal (i.p.) injection of 5.5 mg/kg acetylcholine bromide. The mice were then placed in glass bell jars and observed for a ten minute observation period for the occurrence of an abdominal constriction response (defined as a wave of constriction and elongation passing caudally along the abdominal wall, accompanied by a twisting of the trunk and followed by extension of the hind limbs). The percent inhibition of this response to antinociceptive stimulus (equated to % analgesia) was calculated as follows: The % inhibition of response, i.e., % analgesia is equal to the number of non-responding drug-treated animals×100 divided by the number of animals in the group.
The ED50 values and their 95% fiducial limits were determined by a computer assisted probit analysis. […] This effect lasted for 4-5 hours.
Table A lists the % inhibition for some compounds of the invention. Unless otherwise indicated the compounds were administered s.c. at 30 mg/kg. [drawing 63]

The mark [1] stands for this setting: mouse abdominal constriction, oral dosing.

One may read the ED50 as the dose at which the effect has come halfway, by size or by number of responders.

As to `CN1CC2CCc3[nH]c4ccccc4c3C2C1` (single isomer, unassigned) [Compound 58], where the note is “Mus musculus, 0.5 h, 30 mg/kg po, acetylcholine bromide 5.5 mg/kg i.p. 30 min later, read-out: % inhibition @ 30 mg/kg (po)”, the responders at 30 mg/kg was 100%. For the same compound, under setting [1], the “analgesic effect observed, time after oral dosing” value is listed as 15 min and the “duration of analgesic effect” value lay within 4 to 5 h. Moreover, where the note is “mouse acetylcholine abdominal constriction, probit analysis, read-out: ED50”, the ED50 is 5.8 mg/kg.
